Target: T1, Hepatic sodium/bile acid cotransporter (Homo sapiens, UniProt Q14973)
T1 sequence (Q14973 whole entry): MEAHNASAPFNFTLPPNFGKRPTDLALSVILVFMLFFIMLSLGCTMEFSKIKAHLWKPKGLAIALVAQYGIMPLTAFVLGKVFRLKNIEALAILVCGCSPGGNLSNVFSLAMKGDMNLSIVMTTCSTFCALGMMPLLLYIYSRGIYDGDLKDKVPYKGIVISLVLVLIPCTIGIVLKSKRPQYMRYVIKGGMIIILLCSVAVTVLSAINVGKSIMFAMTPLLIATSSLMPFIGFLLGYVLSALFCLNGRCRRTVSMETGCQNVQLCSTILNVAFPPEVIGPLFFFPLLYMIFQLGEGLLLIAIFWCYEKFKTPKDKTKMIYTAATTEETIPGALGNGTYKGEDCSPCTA
Assay: TP_TRANSPORTER: uptake in Xenopus laevis oocytes
Type: functional, cell-based
Details: oocyte

| Activity | Structure (SMILES) |
| --- | --- |
| substrate [+] | C[C@H](CCC(=O)NCCS(=O)(=O)O)[C@H]1CC[C@H]2[C@@H]3[C@H](O)C[C@@H]4C[C@H](O)CC[C@]4(C)[C@H]3CC[C@]12C [TAUROCHENODEOXYCHOLATE] |
| substrate [+] | C[C@]12CC[C@@H]3c4ccc(OS(=O)(=O)O)cc4CC[C@H]3[C@@H]1CCC2=O [ESTRONE SULFURIC ACID] |
| substrate [+] | C[C@H](CCC(=O)NCC(=O)O)[C@H]1CC[C@H]2[C@@H]3[C@H](O)C[C@@H]4C[C@H](O)CC[C@]4(C)[C@H]3C[C@H](O)[C@]12C [GLYCOCHOLIC ACID] |
| substrate [+] | C[C@H](CCC(=O)NCCS(=O)(=O)O)[C@H]1CC[C@H]2[C@@H]3[C@@H](O)C[C@@H]4C[C@H](O)CC[C@]4(C)[C@H]3CC[C@]12C [TAURURSODIOL] |

| Structure (SMILES) | Activity |
| --- | --- |
| O=C1OC(c2ccc(O)c(S(=O)(=O)[O-])c2)(c2ccc(O)c(S(=O)(=O)[O-])c2)c2c(Br)c(Br)c(Br)c(Br)c21.[Na+].[Na+] [SULFOBROMOPHTHALEIN SODIUM] | substrate [+] |
